In patent publication US20110082166A1, “NOVEL 4-BENZHYDRYL-TETRAHYDRO-PYRIDINE DERIVATIVES AND THEIR USE AS MONOAMINE NEUROTRANSMITTER RE-UPTAKE INHIBITORS” (NEUROSEARCH A/S, priority 2008, published 2011):
Counter-ions that a name gives are not always drawn. Like-named read-outs stand apart in the source and are kept apart here.

How the values were obtained:
[1] = molecular target: T1, reuptake of noradrenaline (NA) in synaptosomes (Rattus norvegicus, UniProt Q63380); test: In vitro inhibition of NA reuptake in synaptosomes; format: biochemical
T1 construct: in synaptosomes as described in WO 97/16451 (NeuroSearch A/S); from tissue

[2] = molecular target: T2, reuptake of serotonine (5-HT) in synaptosomes (Rattus norvegicus, UniProt P31652); test: In vitro inhibition of 5-HT reuptake in synaptosomes; format: biochemical
T2 construct: in synaptosomes as described in WO 97/16451 (NeuroSearch A/S); from tissue
Method: Compounds were tested for their ability to inhibit the reuptake of the monoamine neurotransmitters dopamine (DA) noradrenaline (NA) and serotonine (5-HT) in synaptosomes as described in WO 97/16451 (NeuroSearch A/S).
The test values are given as IC50 (the concentration (μM) of the test substance which inhibits the specific binding of ^3H-DA, ^3H-NA, or ^3H-5-HT by 50%).

[3] = molecular target: T3, reuptake of dopamine (DA) in synaptosomes (Rattus norvegicus, UniProt P23977); test: In vitro inhibition of DA reuptake in synaptosomes; format: biochemical
T3 construct: in synaptosomes as described in WO 97/16451 (NeuroSearch A/S); from tissue
T3 sequence (P23977 whole entry): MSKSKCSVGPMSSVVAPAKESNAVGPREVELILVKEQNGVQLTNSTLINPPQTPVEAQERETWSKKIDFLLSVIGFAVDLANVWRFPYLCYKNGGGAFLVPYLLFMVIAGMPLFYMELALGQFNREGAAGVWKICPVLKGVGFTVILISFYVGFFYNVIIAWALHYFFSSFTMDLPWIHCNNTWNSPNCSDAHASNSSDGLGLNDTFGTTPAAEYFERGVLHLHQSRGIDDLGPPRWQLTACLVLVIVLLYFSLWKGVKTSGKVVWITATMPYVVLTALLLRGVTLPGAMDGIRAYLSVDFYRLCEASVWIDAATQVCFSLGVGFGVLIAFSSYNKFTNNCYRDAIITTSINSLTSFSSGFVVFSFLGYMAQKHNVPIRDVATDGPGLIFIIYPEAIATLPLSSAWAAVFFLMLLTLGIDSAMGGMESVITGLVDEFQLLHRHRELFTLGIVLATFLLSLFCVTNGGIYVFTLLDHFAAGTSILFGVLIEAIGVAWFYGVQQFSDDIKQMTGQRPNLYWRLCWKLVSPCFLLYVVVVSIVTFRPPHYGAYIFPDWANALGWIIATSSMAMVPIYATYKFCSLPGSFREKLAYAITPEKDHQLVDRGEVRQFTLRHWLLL

T2 sequence (P31652 whole entry): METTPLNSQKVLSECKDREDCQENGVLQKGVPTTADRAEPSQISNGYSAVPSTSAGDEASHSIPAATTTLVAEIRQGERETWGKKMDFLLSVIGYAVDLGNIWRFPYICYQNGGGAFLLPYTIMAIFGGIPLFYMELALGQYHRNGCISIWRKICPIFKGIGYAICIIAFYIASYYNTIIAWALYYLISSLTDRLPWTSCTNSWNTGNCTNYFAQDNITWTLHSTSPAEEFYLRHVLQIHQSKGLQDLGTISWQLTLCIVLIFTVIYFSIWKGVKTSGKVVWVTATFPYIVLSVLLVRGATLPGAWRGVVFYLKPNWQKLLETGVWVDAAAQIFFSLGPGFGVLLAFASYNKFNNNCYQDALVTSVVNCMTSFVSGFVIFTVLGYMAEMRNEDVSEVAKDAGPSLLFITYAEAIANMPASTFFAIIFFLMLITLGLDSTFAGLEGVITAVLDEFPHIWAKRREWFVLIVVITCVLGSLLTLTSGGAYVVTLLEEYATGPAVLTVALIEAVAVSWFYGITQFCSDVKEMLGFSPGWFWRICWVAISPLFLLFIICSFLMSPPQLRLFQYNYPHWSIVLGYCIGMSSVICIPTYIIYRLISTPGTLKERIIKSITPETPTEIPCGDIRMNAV
T1 sequence (Q63380 1-617): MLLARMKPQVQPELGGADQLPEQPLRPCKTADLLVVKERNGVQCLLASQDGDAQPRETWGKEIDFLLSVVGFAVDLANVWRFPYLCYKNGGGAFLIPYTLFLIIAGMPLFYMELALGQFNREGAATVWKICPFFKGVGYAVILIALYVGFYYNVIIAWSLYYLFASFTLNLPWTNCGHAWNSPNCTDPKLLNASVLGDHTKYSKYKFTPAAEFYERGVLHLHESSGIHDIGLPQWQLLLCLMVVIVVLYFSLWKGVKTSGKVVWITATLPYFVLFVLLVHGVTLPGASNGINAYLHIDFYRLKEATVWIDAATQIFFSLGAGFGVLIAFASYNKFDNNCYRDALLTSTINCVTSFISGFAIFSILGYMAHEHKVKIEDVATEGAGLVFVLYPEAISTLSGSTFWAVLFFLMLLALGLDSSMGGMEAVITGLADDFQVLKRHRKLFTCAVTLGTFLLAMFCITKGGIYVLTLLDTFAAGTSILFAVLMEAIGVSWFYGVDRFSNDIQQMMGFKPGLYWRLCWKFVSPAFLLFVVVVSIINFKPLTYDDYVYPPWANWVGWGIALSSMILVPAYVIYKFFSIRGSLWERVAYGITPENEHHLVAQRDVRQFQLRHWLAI

CN1CC=C(C(c2ccccc2)c2ccccc2)CC1 [4-Benzhydryl-1-methyl-1,2,3,6-tetrahydro-pyridine] gave an IC50 ([1]; synaptosomes, 3H-NA, read-out: NA-uptake IC50) of 600 nM, an IC50 ([2]; synaptosomes, 3H-5-HT, read-out: 5-HT-uptake IC50) greater than 1000 nM and an IC50 ([3]; synaptosomes, 3H-DA, read-out: DA-uptake IC50) of 580 nM.

Work on CN1CC=C(C(c2ccccc2)c2ccccc2)CC1 (as salt: fumaric acid salt) [4-Benzhydryl-1-methyl-1,2,3,6-tetrahydro-pyridine] yielded a melting point of 177.6 to 179.2 °C.

With C1=C(C(c2ccccc2)c2ccccc2)CCNC1 [4-Benzhydryl-1,2,3,6-tetrahydro-pyridine] the IC50 [1] was 45 nM, the IC50 [2] was 3.5 nM and the IC50 [3] was 63 nM.
